Results taken from patent US20080311126A1, “Antisense Oligonucleotides Directed to Ribonucleotide Reducatase R2 and Uses Thereof in Combination Therapies for the Treatment of Cancer” (Genesense Technologies, Inc, priority 2004, published 2008).
Oligonucleotides are written 5' to 3', each unit as a sugar letter and its base; * is a phosphorothioate linkage, no mark a phosphodiester; rarer units and linkages stand in square brackets, end groups in braces. Plain capitals give the bases only. d = 2'-deoxy (DNA)

Tests used:
Format in all cases: cell-based, human
Hela 1 mM cells = test: Sensitization to chemotherapeutics by AS-II-2229B-20, relative colony forming efficiency; conditions: HeLa 1 mM
Protocol: (§1) Colony forming efficiency was determined using standard protocols. Briefly, the cells were cultured for 24 hours at 37° C. in growth medium with 10% fetal bovine serum. The cells were washed in 5 ml phosphate buffered saline, pH 7.2, once prior to lipofectin +/−oligonucleotide treatment.
(§2) The test oligonucleotides were added to cell cultures in the presence of 2.5 μg of DOTMA/DOPE (Lipofectin; Life Technologies, Inc.) for four hours. The oligonucleotide was tested at 0.2 μM unless otherwise indicated. Controls were the cultures treated with lipofectin but without the oligonucleotide. After 4 hours the medium containing the oligonucleotide was removed and washed with 5 ml of growth medium. The cells were then cultured in growth medium containing 10% fetal bovine serum for seven to ten days. Surviving cells were visualized by methylene blue staining, and colonies were scored. In some experiments cell aliquots were removed from the culture and viability was determined using the trypan blue exclusion test. Results were analyzed as percent of surviving cells compared to control cells.
(§3) Treatment of human tumour cells with very low concentrations of short antisense sequences was tested to determine if these constructs could sensitize the tumour cells to inhibitory effects of other chemotherapeutic drugs.

Hela S3 cells [1] = test: as above; conditions: HeLa S3
Protocol: as §1, §2, §3

[2] = tested on: PC-3 prostrate cell adenocarcinoma; test: Relative colony forming efficiency (Example 17, Table 13); conditions: averages of 2-8 determinations
Method in brief: (§4)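 Phosphorothioate antisense oligodeoxynucleotides, at 0.2 μM unless otherwise indicated, were applied with 2.5 μg DOTMA/DOPE (Lipofectin) for 4 h. Colonies stained with methylene blue and scored, with viability sometimes checked by trypan blue exclusion. Values given as % inhibition of colony formation relative to lipofectin-only controls.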

[3] = tested on: H596 lung adenosquamous carcinoma cells; test: as above; conditions: averages of 2-8 determinations
Method in brief: as §4

[4] = tested on: HepG2 hepatocellular carcinoma; test: as above; conditions: averages of 2-8 determinations
Method in brief: as §4

A549 lung cell carcinoma = test: as above; conditions: averages of 2-8 determinations
Method in brief: as §4

[5] = tested on: HCT116 colon cell carcinoma; test: as above; conditions: averages of 2-8 determinations
Method in brief: as §4

[6] = tested on: MDA PaCa-2 pancreatic cell carcinoma; test: as above; conditions: MIA PaCa-2 pancreatic cell carcinoma; averages of 2-8 determinations
Method in brief: as §4

[7] = tested on: MDA-MB-231 breast cell adenocarcinoma; test: as above; conditions: averages of 2-8 determinations
Method in brief: as §4

[8] = tested on: T24 bladder cell carcinoma; test: as above; conditions: averages of 2-8 determinations
Method in brief: as §4

[9] = tested on: T-47D breast ductal carcinoma; test: as above; conditions: averages of 2-8 determinations
Method in brief: as §4

Hela S3 cells [10] = test: Relative colony forming efficiency, lipofectin +/- oligonucleotide 4 hours; conditions: Hela S3 cervix carcinoma cells; averages of 2-8 determinations
Method in brief: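 Survival is given as percent of lipofectin-treated controls, scored as methylene blue-stained colonies after 7–10 days of regrowth. Beforehand, HeLa S3 cultures received a 4 h lipofectin-mediated pulse of oligonucleotide, normally at 0.2 μM.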

[11] = drug 40 μM, with AS-II-2229B-20 0.02 μM
[12] = drug 40 μM, without AS-II-2229B-20
[13] = drug 60 μM, with AS-II-2229B-20 0.02 μM
[14] = drug 60 μM, without AS-II-2229B-20

Row | Compound | Relative colony Forming Efficiency (Hela 1 mM cells; [11]) | Relative colony Forming Efficiency (Hela 1 mM cells; [12]) | Relative colony Forming Efficiency (Hela 1 mM cells; [13]) | Relative colony Forming Efficiency (Hela 1 mM cells; [14]) | Relative colony Forming Efficiency (Hela S3 cells [1]; [11]) | Relative colony Forming Efficiency (Hela S3 cells [1]; [12]) | Relative colony Forming Efficiency (Hela S3 cells [1]; [13]) | Relative colony Forming Efficiency (Hela S3 cells [1]; [14]) | Reduced relative colony forming efficiency, PC-3 (% inhibition of colony forming ability) [2] [%] | Reduced relative colony forming efficiency, 11596 (% inhibition of colony forming ability) [3] [%] | Reduced relative colony forming efficiency, HepG2 (% inhibition of colony forming ability) [4] [%] | Reduced relative colony forming efficiency, A549 (% inhibition of colony forming ability) (A549 lung cell carcinoma) [%] | Reduced relative colony forming efficiency, HCT116 (% inhibition of colony forming ability) [5] [%] | Reduced relative colony forming efficiency, MIA PaCa-2 (% inhibition of colony forming ability) [6] [%] | Reduced relative colony forming efficiency, MDA-MB-231 (% inhibition of colony forming ability) [7] [%] | Reduced relative colony forming efficiency, T24 (% inhibition of colony forming ability) [8] [%] | Reduced relative colony forming efficiency, T-47D (% inhibition of colony forming ability) [9] [%] | Reduced relative colony forming efficiency, Hela S3 (% inhibition of colony forming ability) (Hela S3 cells [10]) [%]
1 | CN(Cc1cnc2nc(N)nc(N)c2n1)c1ccc(C(=O)N[C@@H](CCC(=O)O)C(=O)O)cc1 [MTX, methotrexate] | 6.5 ± 5.5 | 28 ± 10 | 3.5 ± 0.5 | 12 ± 0.5 | 25 ± 5 | 118 ± 32 | 0 | 116 ± 13 |  |  |  |  |  |  |  |  |  | 
2 | AS-II-1560.20 (antisense dG*dT*dA*dA*dG*dT*dC*dA*dC*dA*dG*dC*dC*dA*dG*dC*dC*dA*dG*dG) |  |  |  |  |  |  |  |  | 78.37 | 71.16 | 73.63 | 84.19 | 85.81 | 33.3 | 46.15 | 32.49 | 86.6 | 82.16
3 | C*CCC*TCAC*TCC*AGC*AGC*CT*T (antisense dC*dCdCdC*dTdCdAdC*dTdCdC*dAdGdC*dAdGdC*dCdT*dT) [AS-II-109-20] |  |  |  |  |  |  |  |  | 61.51 | 7.28 | 18.08 | 15.14 | 6.76 | 54.24 | 22.38 | 24.89 | 20.63 | 46.83
4 | CCCAGGACACTACACAAGCC (antisense dC*dC*dC*dA*dG*dG*dA*dC*dA*dC*dT*dA*dC*dA*dC*dA*dA*dG*dC*dC) [AS-II-2026-20] |  |  |  |  |  |  |  |  | 95.29 | 84.16 | 94.54 | 88.81 | 81.47 | 87.65 | 77.1 | 95.46 | 93.41 | 83.79
5 | CCTGTCTTCTATCTGGCACC (antisense dC*dC*dT*dG*dT*dC*dT*dT*dC*dT*dA*dT*dC*dT*dG*dG*dC*dA*dC*dC) [AS-II-1989-20] |  |  |  |  |  |  |  |  | 77.38 | 56.33 | 80.7 | 83.9 | 78.47 | 70.22 | 54.9 | 77.43 | 90.83 | 61.41
6 | CGGAGGGAGAGCATAGTGGA (antisense dC*dG*dG*dA*dG*dG*dG*dA*dG*dA*dG*dC*dA*dT*dA*dG*dT*dG*dG*dA) [AS-II-189-20] |  |  |  |  |  |  |  |  | 73.12 | 26.15 | 57.86 | 76.57 | 86.78 | 70.52 | 39.86 | 18.57 | 96.63 | 76.67
7 | G*CG*AAG*CAG*AGC*GAG*CAGC*C (antisense dG*dCdG*dAdAdG*dCdAdG*dAdGdC*dGdAdG*dCdAdGdC*dC) [AS-II-163-20] |  |  |  |  |  |  |  |  | 7.14 | 32.08 | 18.64 | 37.13 | 29.05 | 9.88 | 22.73 | 5.49 | 9.81 | 45.8
8 | GCAGCGAAGCAGAGCGAGCA (antisense dG*dC*dA*dG*dC*dG*dA*dA*dG*dC*dA*dG*dA*dG*dC*dG*dA*dG*dC*dA) [AS-II-166-20] |  |  |  |  |  |  |  |  | 74.11 | 61.99 | 78.72 | 81.1 | 73.84 | 91.36 | 29.02 | 68.99 | 91.4 | 80.1
9 | GCTATTATCGCCGCCGTGAG (antisense dG*dC*dT*dA*dT*dT*dA*dT*dC*dG*dC*dC*dG*dC*dC*dG*dT*dG*dA*dG) [AS-II-1773-20] |  |  |  |  |  |  |  |  | 70.04 | 66.04 | 58.19 | 70.11 | 75.58 | 45.68 | 44.76 | 15.19 | 84.38 | 80.27
10 | GGCGACCCCTCACTCCAGCA (antisense dG*dG*dC*dG*dA*dC*dC*dC*dC*dT*dC*dA*dC*dT*dC*dC*dA*dG*dC*dA) [AS-II-114-20] |  |  |  |  |  |  |  |  | 92.66 | 46.3 | 78.72 | 83.51 | 86.1 | 90.05 | 76.22 | 87.45 | 90.83 | 79.25
